Experimental data: patent US9833497B2, “Human originated EGF domain proteins and use of the same” (CHENGDU SOURCEBIO LIMITED-LIABILITY COMPANY, priority 2013, dated 2017)

Key:
Format in all cases: cell-based
Proteus mirabilis = experiment: MIC against Gram-negative bacteria: Proteus mirabilis
Procedure, shortened: (§1)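 Purified recombinant human EGF domain proteins are tested by broth dilution in LB against a 5×10^5 CFU/mL inoculum, with two-fold serial dilutions run in triplicate. Plates are incubated at 37° C with shaking, and the MIC is read as the lowest protein concentration without growth.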

Klebsiella pneumonia = experiment: MIC against Gram-negative bacteria: Klebsiella pneumonia
Procedure, shortened: as §1

Pseudomonas aeruginosa = experiment: MIC against Gram-negative bacteria: Pseudomonas aeruginosa
Procedure, shortened: as §1

Aeromonas hydrophila = experiment: MIC against Gram-negative bacteria: Aeromonas hydrophila
Procedure, shortened: as §1

Moraxella catarrhalis = experiment: MIC against Gram-negative bacteria: Moraxella catarrhalis
Procedure, shortened: as §1

Citrobacter diversus = experiment: MIC against Gram-negative bacteria: Citrobacter diversus
Procedure, shortened: as §1

Serratia marcescens = experiment: MIC against Gram-negative bacteria: Serratia marcescens
Procedure, shortened: as §1

E. coli BL21 = experiment: MIC against Gram-negative bacteria: E. coli BL21; conditions: for MIC (μg/mL) E. coli BL21 / MIC: E. coli BL21
Procedure, shortened: as §1

Proteus vulgaris = experiment: MIC against Gram-negative bacteria: Proteus vulgaris
Procedure, shortened: as §1

E. coli DH5α = experiment: Antibacterial activity: MIC and growth curve against E. coli DH5α in 96-well plate; conditions: minimal inhibitory concentration against E. coli DH5α; 96-well plate, 5×10^5 CFU/mL, 37° C., judged after 8 h
Procedure, shortened: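 MIC taken as lowest protein level with no bacterial growth, tracked by A600 every 30 min during 37 °C, 175 rpm culture. Two-fold protein series 50-12.5 μg/mL final, triplicate wells, against 5×10^5 CFU/mL of LB-washed mid-log cells.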

Enterobacter cloacae = experiment: MIC against Gram-negative bacteria: Enterobacter cloacae
Procedure, shortened: as §1

[1] = P. mirabilis, 10 h cultivation at 37° C., 5×10^5 CFU/mL
[2] = K. pneumonia, 10 h cultivation at 37° C., 5×10^5 CFU/mL
[3] = P. aeruginosa, 10 h cultivation at 37° C., 5×10^5 CFU/mL
[4] = A. hydrophila, 10 h cultivation at 37° C., 5×10^5 CFU/mL
[5] = M. catarrhalis, 10 h cultivation at 37° C., 5×10^5 CFU/mL
[6] = C. diversus, 10 h cultivation at 37° C., 5×10^5 CFU/mL
[7] = S. marcescens, 10 h cultivation at 37° C., 5×10^5 CFU/mL
[8] = 10 h cultivation at 37° C., 5×10^5 CFU/mL
[9] = P. vulgaris, 10 h cultivation at 37° C., 5×10^5 CFU/mL
[10] = E. cloacae, 10 h cultivation at 37° C., 5×10^5 CFU/mL
[11] = 96-well plate, 5×10^5 CFU/mL, 37° C., 10 h
[12] = 10 h cultivation at 37° C., 5×10^5 CFU/mL, two-fold serial dilution
[13] = P. mirabilis, 10 h cultivation at 37° C.
[14] = K. pneumonia, 10 h cultivation at 37° C.
[15] = P. aeruginosa, 10 h cultivation at 37° C.
[16] = A. hydrophila, 10 h cultivation at 37° C.
[17] = M. catarrhalis, 10 h cultivation at 37° C.
[18] = C. diversus, 10 h cultivation at 37° C.
[19] = S. marcescens, 10 h cultivation at 37° C.
[20] = P. vulgaris, 10 h cultivation at 37° C.
[21] = E. cloacae, 10 h cultivation at 37° C.

Substance: PRT242 (CEPGCKFGECVGPNKCRCFPGYTGKTC; listed as Homo sapiens)
- MIC (μg/mL) P. mirabilis (Proteus mirabilis; [1]): 12.5 µg/mL
- MIC (μg/mL) K. pneumonia (Klebsiella pneumonia; [2]): 50 µg/mL
- MIC (μg/mL) P. aeruginosa (Pseudomonas aeruginosa; [3]): 50 µg/mL
- MIC (μg/mL) A. hydrophila (Aeromonas hydrophila; [4]): 12.5 µg/mL
- MIC (μg/mL) M. catarrhalis (Moraxella catarrhalis; [5]): 12.5 µg/mL
- MIC (μg/mL) C. diversus (Citrobacter diversus; [6]): 12.5 µg/mL
- MIC (μg/mL) S. marcescens (Serratia marcescens; [7]): 12.5 µg/mL
- MIC (μg/mL) E. coli BL21 (E. coli BL21; [8]): 12.5 µg/mL
- MIC (μg/mL) P. vulgaris (Proteus vulgaris; [9]): 12.5 µg/mL
- MIC (E. coli DH5α): 12.5 µg/mL
- MIC (μg/mL) E. cloacae (Enterobacter cloacae; [10]): 12.5 µg/mL

Substance: PRT596 (CDCDPRTSQSSHCDQLTGQCPCKLGYGGKRCSECQENYYGDPPGRCIP; listed as Homo sapiens)
- MIC P. mirabilis (Proteus mirabilis; [11]): 12.5 µg/mL
- MIC K. pneumonia (Klebsiella pneumonia; [11]): 25 µg/mL
- MIC P. aeruginosa (Pseudomonas aeruginosa; [11]): 50 µg/mL
- MIC A. hydrophila (Aeromonas hydrophila; [11]): 25 µg/mL
- MIC M. catarrhalis (Moraxella catarrhalis; [11]): 25 µg/mL
- MIC C. diversus (Citrobacter diversus; [11]): 50 µg/mL
- MIC S. marcescens (Serratia marcescens; [11]): 50 µg/mL
- MIC E. coli BL21 (E. coli BL21; [11]): 25 µg/mL
- MIC P. vulgaris (Proteus vulgaris; [11]): 25 µg/mL
- MIC (E. coli DH5α): 12.5 µg/mL
- MIC E. cloacae (Enterobacter cloacae; [11]): 12.5 µg/mL

Substance: PRT1051 (EQKLCKLRKGNCSSTVCGQDLQSHLCMCAEGYALSRDRKYCE; listed as Homo sapiens)
- MIC P. mirabilis (Proteus mirabilis; [12]): 50 µg/mL
- MIC K. pneumonia (Klebsiella pneumonia; [12]): 12.5 µg/mL
- MIC P. aeruginosa (Pseudomonas aeruginosa; [12]): 25 µg/mL
- MIC A. hydrophila (Aeromonas hydrophila; [12]): 12.5 µg/mL
- MIC M. catarrhalis (Moraxella catarrhalis; [12]): 12.5 µg/mL
- MIC C. diversus (Citrobacter diversus; [12]): 12.5 µg/mL
- MIC S. marcescens (Serratia marcescens; [12]): 50 µg/mL
- MIC E. coli BL21 (E. coli BL21; [12]): 12.5 µg/mL
- MIC P. vulgaris (Proteus vulgaris; [12]): 12.5 µg/mL
- MIC (E. coli DH5α): 50 µg/mL
- MIC E. cloacae (Enterobacter cloacae; [12]): 25 µg/mL

Substance: PRT1022 (DIDECSEQPSVCGSHTICNNHPGTFRCECVEGYQFSDEGTCV; listed as Homo sapiens)
- MIC (Proteus mirabilis; [13]): 50 µg/mL
- MIC (Klebsiella pneumonia; [14]): 25 µg/mL
- MIC (Pseudomonas aeruginosa; [15]): 12.5 µg/mL
- MIC (Aeromonas hydrophila; [16]): 25 µg/mL
- MIC (Moraxella catarrhalis; [17]): 12.5 µg/mL
- MIC (Citrobacter diversus; [18]): 50 µg/mL
- MIC (Serratia marcescens; [19]): 12.5 µg/mL
- MIC (E. coli BL21; 10 h cultivation at 37° C.): 50 µg/mL
- MIC (Proteus vulgaris; [20]): 12.5 µg/mL
- MIC (E. coli DH5α): 12.5 µg/mL
- MIC (Enterobacter cloacae; [21]): 25 µg/mL

Substance: PRT86 (VTNACASGPCPPHADCRDLWQTFSCTCQPGYYGPGCV; listed as Homo sapiens)
- MIC (μg/mL) P. mirabilis (Proteus mirabilis; Proteus mirabilis, 96-well plate, 5×10^5 CFU/mL, 37° C., 10 h): 25 µg/mL
- MIC (μg/mL) K. pneumonia (Klebsiella pneumonia; Klebsiella pneumonia, 96-well plate, 5×10^5 CFU/mL, 37° C., 10 h): 12.5 µg/mL
- MIC (μg/mL) P. aeruginosa (Pseudomonas aeruginosa; Pseudomonas aeruginosa, 96-well plate, 5×10^5 CFU/mL, 37° C., 10 h): 25 µg/mL
- MIC (μg/mL) A. hydrophila (Aeromonas hydrophila; Aeromonas hydrophila, 96-well plate, 5×10^5 CFU/mL, 37° C., 10 h): 12.5 µg/mL
- MIC (μg/mL) M. catarrhalis (Moraxella catarrhalis; Moraxella catarrhalis, 96-well plate, 5×10^5 CFU/mL, 37° C., 10 h): 12.5 µg/mL
- MIC (μg/mL) C. diversus (Citrobacter diversus; Citrobacter diversus, 96-well plate, 5×10^5 CFU/mL, 37° C., 10 h): 25 µg/mL
- MIC (μg/mL) S. marcescens (Serratia marcescens; Serratia marcescens, 96-well plate, 5×10^5 CFU/mL, 37° C., 10 h): 12.5 µg/mL
- MIC (μg/mL) E. coli BL21 (E. coli BL21; [11]): 12.5 µg/mL
- MIC (μg/mL) P. vulgaris (Proteus vulgaris; Proteus vulgaris, 96-well plate, 5×10^5 CFU/mL, 37° C., 10 h): 12.5 µg/mL
- MIC (E. coli DH5α): 50 µg/mL
- MIC (μg/mL) E. cloacae (Enterobacter cloacae; Enterobacter cloacae, 96-well plate, 5×10^5 CFU/mL, 37° C., 10 h): 25 µg/mL

Substance: PRT989 (NIDDCATAVCFHGATCHDRVASFYCACPMGKTGLLCH; listed as Homo sapiens)
- MIC (Proteus mirabilis; [13]): 12.5 µg/mL
- MIC (Klebsiella pneumonia; [14]): 12.5 µg/mL
- MIC (Pseudomonas aeruginosa; [15]): 50 µg/mL
- MIC (Aeromonas hydrophila; [16]): 12.5 µg/mL
- MIC (Moraxella catarrhalis; [17]): 100 µg/mL
- MIC (Citrobacter diversus; [18]): 100 µg/mL
- MIC (Serratia marcescens; [19]): 25 µg/mL
- MIC (E. coli BL21; 10 h cultivation at 37° C.): 12.5 µg/mL
- MIC (Proteus vulgaris; [20]): 12.5 µg/mL
- MIC (E. coli DH5α): 50 µg/mL
- MIC (Enterobacter cloacae; [21]): 12.5 µg/mL

Substance: PRT312 (DNNECTSDINLCGSKGICQNTPGSFTCECQRGFSLDQTGSSCE; listed as Homo sapiens)
- MIC (Proteus mirabilis; [1]): 12.5 µg/mL
- MIC (Klebsiella pneumonia; [2]): 25 µg/mL
- MIC (Pseudomonas aeruginosa; [3]): 50 µg/mL
- MIC (Aeromonas hydrophila; [4]): 25 µg/mL
- MIC (Moraxella catarrhalis; [5]): 25 µg/mL
- MIC (Citrobacter diversus; [6]): 50 µg/mL
- MIC (Serratia marcescens; [7]): 50 µg/mL
- MIC (E. coli BL21; [8]): 12.5 µg/mL
- MIC (Proteus vulgaris; [9]): 25 µg/mL
- MIC (E. coli DH5α): 50 µg/mL
- MIC (Enterobacter cloacae; [10]): 12.5 µg/mL
